Data on 1 molecule can be found in article PMC4608832, “Synthesis of New 4-Aminoquinolines and Evaluation of Their In Vitro Activity against Chloroquine-Sensitive and Chloroquine-Resistant Plasmodium falciparum” (PLoS ONE, 2015).

As a reminder, the IC50 is the midpoint of a concentration-inhibition curve. A word on the microsomal CLint: it is the capacity of the preparation to metabolise the compound, expressed as a volume cleared per time. For orientation: half-life means the time needed for the level to fall by half in the phase considered. A low value points to fast loss.

One data set deals with P. falciparum Dd2. Nature of the data set: In vitro antiplasmodial activity, 3H-hypoxanthine incorporation, strain Dd2. It is filed as cell-based. To be noted: Plasmodium falciparum, IC50 ± SD, read-out: Antiplasmodial activity, IC50, Dd2. As to the method: (§1) The following strains of Plasmodium falciparum were used in this study: F32 (Tanzania), Dd2 (SE Asia), K1 (SE Asia), FcB1 (Colombia), K14 (Cambodia) and 3D7 (Africa). […] Parasites at the ring stage (laboratory A) or asynchronous parasites (laboratory B) were grown in human A+ or O+ red blood cells at a 1.5% (laboratory A) or 2% (laboratory B) haematocrit and a 0.8–1% parasitaemia. Synchronization of the parasites was performed by sorbitol treatment.
(§2) Further dilutions were in complete culture medium. The complexes were tested for their inhibitory effect toward P. falciparum intraerythrocytic development. […] 100 μL from a culture at a 3% (laboratory A) or 4% (laboratory B) hematocrit in complete medium was added per well. […] Plates were freeze-thawed and harvested on filters. […] The percentage of growth inhibition was calculated from the parasite-associated radioactivity. 100% ^3H-hypoxanthine incorporation was determined from a control grown in the absence of drug or test compound.

Data set [1] has as its system P. falciparum K1 (CQ-resistant). Nature of the data set: In vitro antiplasmodial activity, 3H-hypoxanthine incorporation, strain K1. It is filed as cell-based. The settings on record: Plasmodium falciparum, IC50 ± SD, read-out: Antiplasmodial activity, IC50, K1. As to the method: as §1, §2
For data set [2], the system named is P. falciparum 3D7 (CQ-sensitive). Nature of the data set: In vitro antiplasmodial activity, 3H-hypoxanthine incorporation, strain 3D7. To be noted: Plasmodium falciparum, IC50 ± SD, read-out: Antiplasmodial activity, IC50, 3D7. It is filed as cell-based. As to the method: as §1, §2
The nature of the next data set: in vitro. To be noted: human, microsomes. How it is done:
The evaluation of microsomal stability was performed by Cyprotex US, LLC, Watertown, MA. […] After separation on an HILIC HPLC colum (Sepax HILIC […] 2.1 x 30 mm) using an acetonitrile-water gradient system, peaks were analyzed by mass spectrometry (MS) using ESI ionization in MRM mode. The signal was optimized for each compound by ESI positive or negative ionization mode. An MS2 scan or an SIM scan was used to optimize the fragmenter voltage and a product ion analysis was used to identify the best fragment for analysis, and the collision energy was optimized using a product ion or MRM scan. An ionization ranking was assigned indicating the compound’s ease of ionization.
A control reaction omitting NADPH was performed for each compound in order to detect any NADPH-independent degradation. Aliquots were removed at 0, 10, 20, 40, and 60 min and mixed with an equal volume of ice-cold Stop Solution (methanol containing haloperidol, diclofenac, or other internal standard). The stopped reactions were further incubated for at least 10 min at -20°C, and an additional volume of water was added. The samples were centrifuged to remove precipitated protein, and the supernatants were analyzed by LC/MS/MS to quantify the remaining parent. Data were converted to % remaining by dividing by the time zero concentration value, and fitted to a first-order decay model to determine half-life values. Intrinsic clearance values were calculated from the half-life and protein concentrations by using the equation CLint = ln 2 / t1/2 [microsomal protein].

On the set-up of data set [3]: method as in PMID 11805197. The settings on record: elimination of the active metabolite after AQ; cited from earlier work.

Where two headings read alike, the source gives them in different places. Where only a bound is given, the exact number is not on record here.

With `CCN(CC)Cc1cc(Nc2ccnc3cc(Cl)ccc23)ccc1O` [AQ, amodiaquine, reference compound], the IC50 is 31.6 ± 7.77 nM in the data set with P. falciparum Dd2 (DD2, laboratory A (Marseille), 5% CO2, 10% O2, 85% N2, Dd2 CQ-resistant under these conditions); 11.3 ± 0.64 nM in the data set with P. falciparum Dd2 (DD2, laboratory B (Paris), candle jar ~17% O2, 3% CO2, 80% N2, Dd2 CQ-sensitive under these conditions); 34.3 ± 0.58 nM in data set [1] (K1, laboratory A (Marseille), 5% CO2, 10% O2, 85% N2); 9.6 ± 0.51 nM in data set [1] (K1, laboratory B (Paris), candle jar ~17% O2, 3% CO2, 80% N2); 24.6 ± 3.06 nM in data set [2] (3D7, laboratory A (Marseille), 5% CO2, 10% O2, 85% N2); 11.9 ± 1 nM in data set [2] (3D7, laboratory B (Paris), candle jar ~17% O2, 3% CO2, 80% N2). The molecule also gave a microsomal CLint at 1 μM in the data set “in vitro” (pH 7.4) of 431 ± 33.4 µL/min/mg. Further, the half-life at 1 μM was 5.4 ± 0.42 min in “in vitro” (pH 7.4, NADPH-dep. t1/2) and over 240 min in “in vitro” (pH 7.4, NADPH-free t1/2). Further, the terminal half-life in data set [3] is given as ~ 100 h.
